Results as given in BigSolDB 2.1.

Cc1cnc(N)s1
Details | solubility (mole fraction)
in 1,4-dioxane, 278.15 K | 0.0399
in 1,4-dioxane, 280.65 K | 0.0431
in 1,4-dioxane, 283.15 K | 0.0474
in 1,4-dioxane, 285.65 K | 0.0517
in 1,4-dioxane, 288.15 K | 0.0563
in 1,4-dioxane, 290.65 K | 0.0618
in 1,4-dioxane, 293.15 K | 0.0673
in 1,4-dioxane, 295.65 K | 0.0737
in 1,4-dioxane, 298.15 K | 0.0806
in 1,4-dioxane, 300.65 K | 0.0881
in 1,4-dioxane, 303.15 K | 0.0961
in 1,4-dioxane, 305.65 K | 0.105
in 1,4-dioxane, 308.15 K | 0.115
in 1,4-dioxane, 310.65 K | 0.126
in 1,4-dioxane, 313.15 K | 0.138
in 2-butanone, 278.15 K | 0.0365
in 2-butanone, 280.65 K | 0.0405
in 2-butanone, 283.15 K | 0.0448
in 2-butanone, 285.65 K | 0.049
in 2-butanone, 288.15 K | 0.0535
in 2-butanone, 290.65 K | 0.0585
in 2-butanone, 293.15 K | 0.064
in 2-butanone, 295.65 K | 0.0705
in 2-butanone, 298.15 K | 0.0776
in 2-butanone, 300.65 K | 0.0849
in 2-butanone, 303.15 K | 0.093
in 2-butanone, 305.65 K | 0.101
in 2-butanone, 308.15 K | 0.111
in 2-butanone, 310.65 K | 0.121
in 2-butanone, 313.15 K | 0.133
in acetone, 278.15 K | 0.0493
in acetone, 280.65 K | 0.0535
in acetone, 283.15 K | 0.0587
in acetone, 285.65 K | 0.0637
in acetone, 288.15 K | 0.0692
in acetone, 290.65 K | 0.0756
in acetone, 293.15 K | 0.0825
in acetone, 295.65 K | 0.09
in acetone, 298.15 K | 0.0979
in acetone, 300.65 K | 0.107
in acetone, 303.15 K | 0.116
in acetone, 305.65 K | 0.126
in acetone, 308.15 K | 0.137
in acetone, 310.65 K | 0.15
in acetone, 313.15 K | 0.163
in acetonitrile, 278.15 K | 0.0284
in acetonitrile, 280.65 K | 0.031
in acetonitrile, 283.15 K | 0.0341
in acetonitrile, 285.65 K | 0.0372
in acetonitrile, 288.15 K | 0.0406
in acetonitrile, 290.65 K | 0.0446
in acetonitrile, 293.15 K | 0.0489
in acetonitrile, 295.65 K | 0.0536
in acetonitrile, 298.15 K | 0.0586
in acetonitrile, 300.65 K | 0.0638
in acetonitrile, 303.15 K | 0.0699
in acetonitrile, 305.65 K | 0.0763
in acetonitrile, 308.15 K | 0.0838
in acetonitrile, 310.65 K | 0.0921
in acetonitrile, 313.15 K | 0.1
in cyclohexane, 283.15 K | 0.000429
in cyclohexane, 285.65 K | 0.000491
in cyclohexane, 288.15 K | 0.000566
in cyclohexane, 290.65 K | 0.000645
in cyclohexane, 293.15 K | 0.000736
in cyclohexane, 295.65 K | 0.000839
in cyclohexane, 298.15 K | 0.000953
in cyclohexane, 300.65 K | 0.00108
in cyclohexane, 303.15 K | 0.00123
in cyclohexane, 305.65 K | 0.00138
in cyclohexane, 308.15 K | 0.00156
in cyclohexane, 310.65 K | 0.00173
in cyclohexane, 313.15 K | 0.00194
in ethanol, 278.15 K | 0.0486
in ethanol, 280.65 K | 0.0529
in ethanol, 283.15 K | 0.0574
in ethanol, 285.65 K | 0.0629
in ethanol, 288.15 K | 0.0677
in ethanol, 290.65 K | 0.0736
in ethanol, 293.15 K | 0.0799
in ethanol, 295.65 K | 0.0869
in ethanol, 298.15 K | 0.095
in ethanol, 300.65 K | 0.103
in ethanol, 303.15 K | 0.112
in ethanol, 305.65 K | 0.122
in ethanol, 308.15 K | 0.133
in ethanol, 310.65 K | 0.144
in ethanol, 313.15 K | 0.157
in ethyl acetate, 278.15 K | 0.0523
in ethyl acetate, 280.65 K | 0.0567
in ethyl acetate, 283.15 K | 0.0614
in ethyl acetate, 285.65 K | 0.067
in ethyl acetate, 288.15 K | 0.0726
in ethyl acetate, 290.65 K | 0.0791
in ethyl acetate, 293.15 K | 0.086
in ethyl acetate, 295.65 K | 0.0934
in ethyl acetate, 298.15 K | 0.101
in ethyl acetate, 300.65 K | 0.109
in ethyl acetate, 303.15 K | 0.118
in ethyl acetate, 305.65 K | 0.129
in ethyl acetate, 308.15 K | 0.14
in ethyl acetate, 310.65 K | 0.152
in ethyl acetate, 313.15 K | 0.164
in isopropanol, 278.15 K | 0.0345
in isopropanol, 280.65 K | 0.0381
in isopropanol, 283.15 K | 0.0415
in isopropanol, 285.65 K | 0.0452
in isopropanol, 288.15 K | 0.0497
in isopropanol, 290.65 K | 0.0546
in isopropanol, 293.15 K | 0.0594
in isopropanol, 295.65 K | 0.0647
in isopropanol, 298.15 K | 0.0709
in isopropanol, 300.65 K | 0.0775
in isopropanol, 303.15 K | 0.085
in isopropanol, 305.65 K | 0.0927
in isopropanol, 308.15 K | 0.102
in isopropanol, 310.65 K | 0.112
in isopropanol, 313.15 K | 0.121
in methanol, 278.15 K | 0.0594
in methanol, 280.65 K | 0.0639
in methanol, 283.15 K | 0.0686
in methanol, 285.65 K | 0.0742
in methanol, 288.15 K | 0.0796
in methanol, 290.65 K | 0.086
in methanol, 293.15 K | 0.0927
in methanol, 295.65 K | 0.0999
in methanol, 298.15 K | 0.107
in methanol, 300.65 K | 0.116
in methanol, 303.15 K | 0.125
in methanol, 305.65 K | 0.135
in methanol, 308.15 K | 0.146
in methanol, 310.65 K | 0.157
in methanol, 313.15 K | 0.169
in n-propanol, 278.15 K | 0.037
in n-propanol, 280.65 K | 0.0404
in n-propanol, 283.15 K | 0.0441
in n-propanol, 285.65 K | 0.0482
in n-propanol, 288.15 K | 0.0526
in n-propanol, 290.65 K | 0.0575
in n-propanol, 293.15 K | 0.0628
in n-propanol, 295.65 K | 0.0686
in n-propanol, 298.15 K | 0.075
in n-propanol, 300.65 K | 0.082
in n-propanol, 303.15 K | 0.0898
in n-propanol, 305.65 K | 0.098
in n-propanol, 308.15 K | 0.107
in n-propanol, 310.65 K | 0.117
in n-propanol, 313.15 K | 0.128
in toluene, 278.15 K | 0.0109
in toluene, 280.65 K | 0.0121
in toluene, 283.15 K | 0.0136
in toluene, 285.65 K | 0.0149
in toluene, 288.15 K | 0.0167
in toluene, 290.65 K | 0.0185
in toluene, 293.15 K | 0.0205
in toluene, 295.65 K | 0.0225
in toluene, 298.15 K | 0.0251
in toluene, 300.65 K | 0.028
in toluene, 303.15 K | 0.0312
in toluene, 305.65 K | 0.0348
in toluene, 308.15 K | 0.039
in toluene, 310.65 K | 0.0438
in toluene, 313.15 K | 0.0493
